Results on 82 compounds are retold here after the Kinase Knowledgebase extract (Sharma et al. 2016).

Each structure is given as a SMILES string.

Sequence of PIK3CA (human) (P42336 whole entry, looked up): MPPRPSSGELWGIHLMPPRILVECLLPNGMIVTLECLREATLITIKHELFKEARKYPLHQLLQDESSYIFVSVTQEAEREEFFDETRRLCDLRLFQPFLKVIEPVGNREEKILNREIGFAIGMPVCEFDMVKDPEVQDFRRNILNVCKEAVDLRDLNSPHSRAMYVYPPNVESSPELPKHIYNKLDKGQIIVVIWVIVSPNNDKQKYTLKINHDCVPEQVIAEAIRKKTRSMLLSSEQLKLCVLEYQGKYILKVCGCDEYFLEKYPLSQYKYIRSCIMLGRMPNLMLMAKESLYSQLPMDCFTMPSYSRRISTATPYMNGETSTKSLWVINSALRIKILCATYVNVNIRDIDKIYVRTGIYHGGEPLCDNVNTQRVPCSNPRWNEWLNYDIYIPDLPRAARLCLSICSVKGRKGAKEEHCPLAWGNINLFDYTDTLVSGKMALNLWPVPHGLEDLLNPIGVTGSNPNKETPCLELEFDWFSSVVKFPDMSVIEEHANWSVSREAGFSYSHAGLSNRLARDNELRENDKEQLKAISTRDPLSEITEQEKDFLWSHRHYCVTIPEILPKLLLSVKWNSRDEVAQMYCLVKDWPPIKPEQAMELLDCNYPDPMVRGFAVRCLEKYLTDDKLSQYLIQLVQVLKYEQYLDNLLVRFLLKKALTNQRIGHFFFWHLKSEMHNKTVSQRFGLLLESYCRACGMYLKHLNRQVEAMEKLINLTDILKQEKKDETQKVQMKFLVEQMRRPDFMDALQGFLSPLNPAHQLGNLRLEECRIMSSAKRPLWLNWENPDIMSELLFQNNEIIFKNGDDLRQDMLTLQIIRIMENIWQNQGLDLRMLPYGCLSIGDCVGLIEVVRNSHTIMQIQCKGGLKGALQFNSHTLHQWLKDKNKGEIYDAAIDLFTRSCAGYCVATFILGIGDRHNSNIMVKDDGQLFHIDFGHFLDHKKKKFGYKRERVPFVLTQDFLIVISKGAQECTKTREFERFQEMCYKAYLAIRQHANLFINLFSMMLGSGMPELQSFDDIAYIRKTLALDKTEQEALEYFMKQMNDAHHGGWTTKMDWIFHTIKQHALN

This assay addresses PIK3CA (human) (UniProt P42336). Kind of assay: Assessment of PIK3CA Kinase Activity.
Compound `CC(C)n1ncnc1-c1nc2c(s1)CCOc1cc(C3CCN(C(C)(C)C(N)=O)CC3)ccc1-2` yielded an IC50 of less than 1000 nM. With `CC(=O)NCCNc1ccc2c(n1)-c1sc(-c3ncnn3-c3ccc(F)cc3F)cc1CCO2` the figure was less than 1000 nM; with `CC(C)n1ncnc1-c1nc2c(s1)CCOc1cc(C3CN(S(=O)(=O)C(C)C)C3)ccc1-2`, less than 1000 nM. The figure for `CN(C)C(=O)N1CCN(C(=O)c2nc3c(s2)CCOc2cc(-c4cn[nH]c4)ccc2-3)CC1` is less than 1000 nM; for `CN1CCC(CNc2ccc3c(n2)-c2sc(-c4ncnn4-c4ccc(F)cc4F)cc2CCO3)CC1` it is less than 1000 nM; for `CN1CCN(c2ccc3c(n2)-c2sc(-c4ncnn4-c4ccc(F)cc4F)cc2CCO3)CC1` it is less than 1000 nM. With `Cc1cnc(F)c(-c2ccc3c(c2)-c2nc(-c4ncnn4C(C)C)sc2CCO3)c1` the figure was less than 1000 nM. The compound `C[C@@H]1CN(c2ccc3c(n2)-c2sc(-c4ncnn4-c4ccc(F)cc4F)cc2CCO3)C[C@H](C)N1C(=O)C(F)F` returned an IC50 of less than 1000 nM. The figure for `CC(C)n1nc(CO)nc1-c1nc2c(s1)CCOc1ccccc1-2` is less than 1000 nM; for `CC(C)n1ncnc1-c1nc2c(s1)CCOc1ccc(C3CCN(C(=O)[C@@H](C)O)CC3)cc1-2` it is less than 1000 nM. With `CC(C)n1ncnc1-c1nc2c(s1)CCOc1cc(-c3cnn(CCOP(=O)(O)O)c3)ccc1-2` the figure was less than 1000 nM; with `CC(C)n1c(-c2nc3c(s2)CCOc2cc(-c4cnn(CC5(C)COC5)c4)ccc2-3)n[nH]c1=O`, less than 1000 nM. With `O=C(c1nc2c(s1)CCOc1cc(-c3cn[nH]c3)ccc1-2)N1CCN(CCO)CC1` the figure was less than 1000 nM; with `CC(C)n1ncnc1-c1nc2c(s1)CCOc1cc(-c3cc[nH]c(=O)c3)ccc1-2`, less than 1000 nM; with `CC(C)(O)Cn1cc(-c2ccc3c(c2)OCCc2sc(NC(C)(C)CO)nc2-3)cn1`, less than 1000 nM. As to `CC(C)n1nc(N)nc1-c1nc2c(s1)CCOc1cc(C3CN(CCS(C)(=O)=O)C3)ccc1-2`, the IC50 was less than 1000 nM. As for `CC(C)n1ncnc1-c1nc2c(s1)CCOc1ccc(-c3cncc(S(C)(=O)=O)c3)cc1-2`, the IC50 is less than 1000 nM.

For `Cc1nc(-c2nc3c(s2)CCOc2cc(C4CN(CCS(C)(=O)=O)C4)ccc2-3)n(C(C)C)n1`, the IC50 is less than 1000 nM. With `CC(C)n1ncnc1-c1nc2c(s1)CCOc1cc(O[C@H](C)C(N)=O)ccc1-2` the figure was less than 1000 nM; with `C[C@@H]1CN(c2ccc3c(n2)-c2sc(-c4ncnn4-c4ccc(F)cc4F)cc2CCO3)C[C@H](C)N1CC(F)(F)F`, less than 1000 nM. Regarding `CC1CCN(C(=O)c2nc3c(s2)CCOc2cc(-c4cn[nH]c4)ccc2-3)CC1`, the half-maximal inhibitory concentration (IC50) is less than 1000 nM. `CN(CCc1ccccc1)C(=O)c1nc2c(s1)CCOc1cc(-c3cn[nH]c3)ccc1-2` yielded an IC50 of less than 1000 nM. The figure for `Cc1nc(-c2nc3c(s2)CCOc2cc(CNS(C)(=O)=O)ccc2-3)n(C(C)C)n1` is less than 1000 nM; for `C[C@H]1COCCN1C(=O)c1nc2c(s1)CCOc1cc(-c3cn[nH]c3)ccc1-2` it is less than 1000 nM; for `CC(C)N1CCN(c2ccc3c(n2)-c2sc(-c4ncnn4-c4ccc(F)cc4F)cc2CCO3)CC1` it is less than 1000 nM. The compound `CC(C)n1ncnc1-c1nc2c(s1)CCOc1ccc(C3CN(Cc4ccccc4Cl)C3)cc1-2` displayed a half-inhibitory concentration (IC50) of less than 1000 nM. With `CC(C)n1ncnc1-c1cc2c(s1)-c1ccc(C3CNC3)cc1OCC2` the figure was less than 1000 nM; with `CC(=O)N1CC(N(C(C)=O)c2ccc3c(n2)-c2sc(-c4ncnn4-c4ccc(F)cc4F)cc2CCO3)C1`, less than 1000 nM; with `O=C(c1nc2c(s1)CCOc1cc(-c3cn[nH]c3)ccc1-2)N1CCN(C[C@H]2CCCO2)CC1`, less than 1000 nM.

Regarding `CN(C)c1ccc(-c2ccc3c(n2)-c2sc(-c4ncnn4-c4ccc(F)cc4F)cc2CCO3)cn1`, the IC50 was less than 1000 nM. As to `Nc1nc(-c2cc3c(s2)-c2ccc(C(=O)NC4COC4)cc2OCC3)n(-c2ccc(F)cc2F)n1`, the IC50 is less than 1000 nM. `CC(C)n1ncnc1-c1nc2c(s1)CCOc1cc(C3CCN(CC(=O)NC(C)(C)C)CC3)ccc1-2` yielded an IC50 of less than 1000 nM.

`CC(C)n1ncnc1-c1nc2c(s1)CCOc1cc(C3CN(S(C)(=O)=O)C3)ccc1-2`: the IC50 is less than 1000 nM. With `CC(C)N(CCCO)C(=O)c1nc2c(s1)CCOc1cc(-c3cn[nH]c3)ccc1-2` the figure was less than 1000 nM. With `COc1ncccc1-c1ccc2c(n1)-c1sc(-c3ncnn3-c3ccc(F)cc3F)cc1CCO2` the figure was less than 1000 nM. The figure for `CC(O)Cn1ncnc1-c1nc2c(s1)CCOc1cc(-c3cnn(CC(C)(C)O)c3)ccc1-2` (configuration not stated) is less than 1000 nM; for `Cc1nc(-c2nc3c(s2)CCOc2cc(-c4ccccc4S(N)(=O)=O)ccc2-3)n(C(C)C)n1` it is less than 1000 nM.

In the case of `CC(C)CCN(C)C(=O)c1nc2c(s1)CCOc1cc(-c3cn[nH]c3)ccc1-2`, the half-maximal inhibitory concentration (IC50) is less than 1000 nM. With `CN(C)CCCc1ccc2c(n1)-c1sc(-c3ncnn3-c3ccc(F)cc3F)cc1CCO2` the figure was less than 1000 nM; with `Nc1ccc(-c2ccc3c(n2)-c2sc(-c4ncnn4-c4ccc(F)cc4F)cc2CCO3)cn1`, less than 1000 nM. The figure for `O=C(c1nc2c(s1)CCOc1cc(-c3cn[nH]c3)ccc1-2)N1CCCCC1` is less than 1000 nM; for `CC(C)n1ncnc1-c1nc2c(s1)CCOc1cc(C3CCN(CCS(C)(=O)=O)CC3)ccc1-2` it is less than 1000 nM; for `CC(O)c1ccc2c(c1)OCCc1sc(-c3ncnn3CC(F)(F)F)nc1-2` (configuration not stated) it is less than 1000 nM. With `Cc1cc(-c2ccc3c(n2)-c2sc(-c4ncnn4-c4ccc(F)cc4F)cc2CCO3)cnc1N1CCN(C)CC1` the figure was less than 1000 nM; with `CC(C)n1ncnc1-c1nc2c(s1)CCOc1cc(C3CN(CCS(=O)(=O)N(C)C)C3)ccc1-2`, less than 1000 nM. `O=C(c1nc2c(s1)CCOc1cc(-c3cn[nH]c3)ccc1-2)N1CCCN(c2ccncc2)CC1` had an IC50 of less than 1000 nM. With `O=C(c1nc2c(s1)CCOc1cc(-c3cn[nH]c3)ccc1-2)N1CC[C@@H](C(F)(F)F)C1` the figure was less than 1000 nM; with `CC(C)C[C@@H](CO)NC(=O)c1nc2c(s1)CCOc1cc(-c3cn[nH]c3)ccc1-2`, less than 1000 nM. With `Fc1ccc(-n2ncnc2-c2cc3c(s2)-c2nc(N4CCN(CC(F)(F)F)CC4)ccc2OCC3)c(F)c1` the figure was less than 1000 nM; with `CC(C)n1ncnc1-c1nc2c(s1)CCOc1ccc(-c3cc[nH]c(=O)c3)cc1-2`, less than 1000 nM; with `C[C@H](O)CNC(=O)c1ccc2c(c1)OCCc1sc(-c3ncnn3CC(F)(F)F)nc1-2`, less than 1000 nM. Compound `CC(C)n1ncnc1-c1nc2c(s1)CCOc1ccc(-c3ccc(=O)[nH]c3)cc1-2` returned an IC50 of less than 1000 nM.

`FC(F)(F)Cn1ncnc1-c1nc2c(s1)CCOc1cc(-c3cnn(CCNC4COC4)c3)ccc1-2`: the IC50 was less than 1000 nM. Compound `OCC(O)CNc1ccc2c(n1)-c1sc(-c3ncnn3-c3ccc(F)cc3F)cc1CCO2` (configuration not stated) came in with a 50% inhibitory concentration (IC50) of less than 1000 nM. With `CC(C)n1ncnc1-c1nc2c(s1)CCOc1cc(O[C@@H](C)C(N)=O)ccc1-2` the figure was less than 1000 nM; with `CN(C(=O)c1cc2c(s1)-c1ccc(C(=O)NCCS(C)(=O)=O)cc1OCC2)c1cc(C(=O)N2CC(F)(F)C2)ccc1Cl`, less than 1000 nM. The compound `CC(C)n1ncnc1-c1nc2c(s1)CCOc1ccc(-c3ccc(N4CCCC4)nc3)cc1-2` displayed an IC50 of less than 1000 nM.

In the case of `O=C(c1nc2c(s1)CCOc1cc(-c3cn[nH]c3)ccc1-2)N1CCC[C@@H]1Cc1ccccn1`, the IC50 was less than 1000 nM. With `Cc1cccc(N2CCN(C(=O)c3nc4c(s3)CCOc3cc(-c5cn[nH]c5)ccc3-4)CC2)n1` the figure was less than 1000 nM; with `C[C@@H]1CN(C2CCN(C(=O)c3nc4c(s3)CCOc3cc(-c5cn[nH]c5)ccc3-4)CC2)C[C@@H](C)O1`, less than 1000 nM. The figure for `O=C(c1nc2c(s1)CCOc1cc(-c3cn[nH]c3)ccc1-2)N1CCC1` is less than 1000 nM; for `CC(C)n1ncnc1-c1nc2c(s1)CCOc1cc(CN3CCC[C@H]3C(N)=O)ccc1-2` it is less than 1000 nM. `CN(C)CCNc1ccc(-c2ccc3c(n2)-c2sc(-c4ncnn4-c4ccc(F)cc4F)cc2CCO3)cn1`: the IC50 is less than 1000 nM.

For `O=C(c1nc2c(s1)CCOc1cc(-c3cn[nH]c3)ccc1-2)N(CCO)C1CCCCC1`, the IC50 was less than 1000 nM. With `CC(C)n1ncnc1-c1nc2c(s1)CCOc1cc(CNc3ccon3)ccc1-2`, the IC50 is less than 1000 nM. With `O=C(c1nc2c(s1)CCOc1cc(-c3cn[nH]c3)ccc1-2)N1CCCCCCC1` the figure was less than 1000 nM. The figure for `CC(=O)N1CCN(c2ccc3c(n2)-c2sc(-c4ncnn4-c4ccc(F)cc4F)cc2CCO3)CC1` is less than 1000 nM. With `CC(C)n1ncnc1-c1nc2c(s1)CCOc1ccc(/C=C/S(C)(=O)=O)cc1-2` the figure was less than 1000 nM; with `CC(C)n1ncnc1-c1nc2c(s1)CCOc1ccc(C3CCCC3)cc1-2`, less than 1000 nM; with `O=C(c1nc2c(s1)CCOc1cc(-c3cn[nH]c3)ccc1-2)N1CCN2CCCC[C@@H]2C1`, less than 1000 nM.

`CC(C)n1ncnc1-c1nc2c(s1)CCOc1ccc(-c3ccc(S(N)(=O)=O)cc3)cc1-2` displayed an IC50 of less than 1000 nM.

Regarding `O=C(c1nc2c(s1)CCOc1cc(-c3cn[nH]c3)ccc1-2)N1CCCN(c2ccccn2)CC1`, the IC50 was less than 1000 nM. The figure for `COCCNCc1ccc2c(c1)OCCc1sc(-c3nncn3C(C)C)nc1-2` is less than 1000 nM; for `C[C@@H]1CN(c2ccc3c(n2)-c2sc(-c4ncnn4-c4ccc(F)cc4F)cc2CCO3)C[C@H](C)N1CC(F)F` it is less than 1000 nM; for `OC1CCN(c2ccc3c(n2)-c2sc(-c4ncnn4-c4ccc(F)cc4F)cc2CCO3)CC1` it is less than 1000 nM. With `O=C(c1nc2c(s1)CCOc1cc(-c3cn[nH]c3)ccc1-2)N1CC[C@@H](N2CCOCC2)C1` the figure was less than 1000 nM; with `COCCn1cc(-c2ccc3c(c2)OCCc2sc(-c4ncnn4C(C)C)nc2-3)ccc1=O`, less than 1000 nM. `CC(C)n1ncnc1-c1nc2c(s1)CCOc1ccc(C3CN(C(=O)OC(C)(C)C)C3)cc1-2` displayed an IC50 of less than 1000 nM. With `CN(CCO)C(=O)c1nc2c(s1)CCOc1cc(-c3cn[nH]c3)ccc1-2` the figure was less than 1000 nM; with `NC(=O)CNc1ccc2c(n1)-c1sc(-c3ncnn3-c3ccc(F)cc3F)cc1CCO2`, less than 1000 nM; with `Cc1nc(-c2nc3c(s2)CCOc2cc(-c4cn(CCO)cn4)ccc2-3)n(C(C)C)n1`, less than 1000 nM. The compound `COCCN(C)C(=O)c1nc2c(s1)CCOc1cc(-c3cn[nH]c3)ccc1-2` had an IC50 of less than 1000 nM.

In general, IC50 refers to the point on the concentration scale where inhibition reaches its midpoint. Read a high IC50 as a need for much substance.
